Source: article PMC11124940, “Sweeteners Show a Plasticizing Effect on PVP K30—A Solution for the Hot-Melt Extrusion of Fixed-Dose Amorphous Curcumin-Hesperetin Solid Dispersions” (Pharmaceutics, 2024)
≈ marks a conversion by molar mass, not a printed value. Read-outs that look alike come from different tables or passages of the source.

Tests used:
[1] = Apparent solubility study (24 h, 25 °C, HPLC); format: physicochemical
Protocol: (§1) The injection volume differed depending on the assay. […] The duration of the run was 10 min.
Phosphate buffer at pH 6.8 was prepared as follows: 250 mL of 0.2 N potassium dihydrogen phosphate solution was placed in a 1000 mL volumetric flask, and then 112 mL of 0.2 N sodium hydroxide solution was added. The volume was made up to 1000 mL with purified water. Hydrochloric acid solution pH 1.2 was prepared from the analytically weighed amount following the manufacturer’s (Alfachem, Poznań, Poland) recommendations.
An excess amount of powder (corresponding to 6 mg of each active substance) was placed in a 10 mL glass tube. Then, 2.0 mL of phosphate buffer (pH 6.8) or HCl solution (pH 1.2) was added and stirred at 100 rpm at room temperature (25 ± 0.1 °C) for 24 h.

[2] = PAMPA GIT permeability assay; format: in vitro ADME; conditions: GIT model, donor pH ≈6.8, 4 h, 37 °C
Protocol: as §1

[3] = PAMPA, 4 h, pH 7.4
Protocol: Concentrations of curcumin and hesperetin in samples collected during solubility, dissolution, and permeability studies were determined using HPLC with the DAD detector (HPLC-DAD). Shimadzu Nexera (Shimadzu Corp., Kyoto, Japan) equipped with an SCL-40 system controller, a DGU-403 degassing unit, an LC-40B XR solvent delivery module, a SIL-40C autosampler, a CTO-40C column oven, and an SPD-M40 photodiode array detector were employed in this investigation. For the stationary phase, a Dr. Maisch ReproSil-Pur Basic-C18 100 Å column with 5 µm particle size and 250 × 4.60 mm (Dr. Maisch, Ammerbuch-Entringen, Germany) was used. The mobile phase was HPLC-grade methanol:0.1% acetic acid (80:20 v/v). The mobile phase was vacuum filtered through a 0.45 µm nylon filter (Phenomenex, Torrance, CA, USA). The experimental conditions were as follows: a 1.0 mL/min flow rate, a wavelength of 420 nm for curcumin and 288 nm for hesperetin, and a column temperature of 30 °C. The injection volume differed depending on the assay. For the solubility study, it was 2 µL, whereas for the dissolution and permeability assays, it was 10 µL. […]
In vitro, gastrointestinal (GIT) and blood–brain barrier (BBB) permeability was studied using the Parallel Artificial Membrane Permeability Assay (PAMPA) models. […] The results are expressed as a concentration of the compound in the acceptor solution.

solubility at 24 h ([1]; HCl solution, pH 1.2 HCl, read-out: Curcumin Concentration (apparent solubility))	solubility at 24 h ([1]; aqueous buffer, thermodynamic from solid, pH 6.8 phosphate buffer, read-out: Curcumin Concentration (apparent solubility))	Curcumin Concentration in the acceptor solution [2]	Curcumin Concentration in the acceptor solution [3]	solubility at 24 h ([1]; HCl solution, simulated gastric fluid, thermodynamic from solid, pH 1.2 HCl, read-out: Hesperetin Concentration (apparent solubility))	solubility at 24 h ([1]; aqueous buffer, thermodynamic from solid, pH 6.8 phosphate buffer, read-out: Hesperetin Concentration (apparent solubility))	Hesperetin Concentration in the acceptor solution [2]	Hesperetin Concentration in the acceptor solution [3]	Structure (SMILES)
0.1 ± 0.01 µg/mL (≈ 0.271 µM)	0.14 ± 0.02 µg/mL (≈ 0.38 µM)	3.34 × 10^−6 ± 1.94 × 10^−6 c mg/mL	1.86 × 10^−5 ± 2.48 × 10^−6 c mg/mL					COc1cc(/C=C/C(=O)CC(=O)/C=C/c2ccc(O)c(OC)c2)ccc1O [Curcumin]
				4 ± 1 µg/mL (≈ 13.2 µM)	5 ± 1 µg/mL (≈ 16.5 µM)	2.58 × 10^−5 ± 6.16 × 10^−6 c mg/mL	3.89 × 10^−5 ± 1.66 × 10^−5 c mg/mL	COc1ccc([C@@H]2CC(=O)c3c(O)cc(O)cc3O2)cc1O [Hesperetin]
